Assay results as given in the NIST ThermoML archive (doi:10.1016/j.jct.2017.03.006).
Numbers after ± are expanded uncertainties.

Test: xn = mol fraction of the nth substance listed
Details: Liquid; for mass density: Vibrating tube method; for viscosity: Concentric cylinders viscometry

Cc1ccc(C)c(C)c1 [1,2,4-trimethylbenzene] + CCC(C)O
Details	mass density [kg/m3]	viscosity [mPa·s]
273.15 K, 60000 kPa, x2 = 0.1	917.1 ± 0.7	–
273.15 K, 60000 kPa, x2 = 0.1989	911.9 ± 0.7	–
273.15 K, 60000 kPa, x2 = 0.3011	906.2 ± 0.8	–
273.15 K, 60000 kPa, x2 = 0.4002	900.7 ± 0.8	–
273.15 K, 60000 kPa, x2 = 0.5001	894.6 ± 0.8	–
273.15 K, 60000 kPa, x2 = 0.5997	888.3 ± 0.8	–
273.15 K, 60000 kPa, x2 = 0.6999	881.3 ± 0.8	–
273.15 K, 60000 kPa, x2 = 0.7999	873.8 ± 0.8	–
273.15 K, 60000 kPa, x2 = 0.9	865.5 ± 0.8	–
273.15 K, 70000 kPa, x2 = 0	926.2 ± 0.7	–
273.15 K, 70000 kPa, x2 = 0.1	921.5 ± 0.8	–
273.15 K, 70000 kPa, x2 = 0.1989	916.2 ± 0.8	–
273.15 K, 70000 kPa, x2 = 0.3011	910.7 ± 0.8	–
273.15 K, 70000 kPa, x2 = 0.4002	905.2 ± 0.8	–
273.15 K, 70000 kPa, x2 = 0.5001	899.2 ± 0.8	–
273.15 K, 70000 kPa, x2 = 0.5997	892.8 ± 0.8	–
273.15 K, 70000 kPa, x2 = 0.6999	886 ± 0.8	–
273.15 K, 70000 kPa, x2 = 0.7999	878.4 ± 0.8	–
273.15 K, 70000 kPa, x2 = 0.9	870.2 ± 0.8	–
273.15 K, 80000 kPa, x2 = 0	930.3 ± 0.8	–
273.15 K, 80000 kPa, x2 = 0.1	925.7 ± 0.8	–
273.15 K, 80000 kPa, x2 = 0.1989	920.6 ± 0.8	–
273.15 K, 80000 kPa, x2 = 0.3011	915 ± 0.8	–
273.15 K, 80000 kPa, x2 = 0.4002	909.6 ± 0.8	–
273.15 K, 80000 kPa, x2 = 0.5001	903.5 ± 0.8	–
273.15 K, 80000 kPa, x2 = 0.5997	897.2 ± 0.8	–
273.15 K, 80000 kPa, x2 = 0.6999	890.3 ± 0.8	–
273.15 K, 80000 kPa, x2 = 0.7999	882.8 ± 0.8	–
273.15 K, 80000 kPa, x2 = 0.9	874.6 ± 0.8	–
273.15 K, 90000 kPa, x2 = 0	934.2 ± 0.8	–
273.15 K, 90000 kPa, x2 = 0.1	929.8 ± 0.8	–
273.15 K, 90000 kPa, x2 = 0.1989	924.7 ± 0.8	–
273.15 K, 90000 kPa, x2 = 0.3011	919.1 ± 0.8	–
273.15 K, 90000 kPa, x2 = 0.4002	913.7 ± 0.8	–
273.15 K, 90000 kPa, x2 = 0.5001	907.7 ± 0.8	–
273.15 K, 90000 kPa, x2 = 0.5997	901.4 ± 0.8	–
273.15 K, 90000 kPa, x2 = 0.6999	894.6 ± 0.8	–
273.15 K, 90000 kPa, x2 = 0.7999	887.1 ± 0.8	–
273.15 K, 90000 kPa, x2 = 0.9	878.9 ± 0.8	–
273.15 K, 100000 kPa, x2 = 0	938 ± 0.8	–
273.15 K, 100000 kPa, x2 = 0.1	933.7 ± 0.8	–
273.15 K, 100000 kPa, x2 = 0.1989	928.6 ± 0.8	–
273.15 K, 100000 kPa, x2 = 0.3011	923.1 ± 0.8	–
273.15 K, 100000 kPa, x2 = 0.4002	917.7 ± 0.8	–
273.15 K, 100000 kPa, x2 = 0.5001	911.7 ± 0.8	–
273.15 K, 100000 kPa, x2 = 0.5997	905.5 ± 0.8	–
273.15 K, 100000 kPa, x2 = 0.6999	898.7 ± 0.8	–
273.15 K, 100000 kPa, x2 = 0.7999	891.2 ± 0.8	–
273.15 K, 100000 kPa, x2 = 0.9	883 ± 0.9	–
273.15 K, 110000 kPa, x2 = 0	941.7 ± 0.8	–
273.15 K, 110000 kPa, x2 = 0.1	937.6 ± 0.8	–
273.15 K, 110000 kPa, x2 = 0.1989	932.5 ± 0.8	–
273.15 K, 110000 kPa, x2 = 0.3011	927 ± 0.8	–
273.15 K, 110000 kPa, x2 = 0.4002	921.6 ± 0.8	–
273.15 K, 110000 kPa, x2 = 0.5001	915.7 ± 0.8	–
273.15 K, 110000 kPa, x2 = 0.5997	909.4 ± 0.8	–
273.15 K, 110000 kPa, x2 = 0.6999	902.5 ± 0.8	–
273.15 K, 110000 kPa, x2 = 0.7999	895.1 ± 0.9	–
273.15 K, 110000 kPa, x2 = 0.9	887 ± 0.9	–
273.15 K, 120000 kPa, x2 = 0	945.2 ± 0.8	–
273.15 K, 120000 kPa, x2 = 0.1	941.3 ± 0.8	–
273.15 K, 120000 kPa, x2 = 0.1989	936.2 ± 0.8	–
273.15 K, 120000 kPa, x2 = 0.3011	930.8 ± 0.8	–
273.15 K, 120000 kPa, x2 = 0.4002	925.3 ± 0.8	–
273.15 K, 120000 kPa, x2 = 0.5001	919.5 ± 0.8	–
273.15 K, 120000 kPa, x2 = 0.5997	913.2 ± 0.8	–
273.15 K, 120000 kPa, x2 = 0.6999	906.4 ± 0.8	–
273.15 K, 120000 kPa, x2 = 0.7999	899 ± 0.9	–
273.15 K, 120000 kPa, x2 = 0.9	890.8 ± 0.9	–
273.15 K, 130000 kPa, x2 = 0	948.6 ± 0.8	–
273.15 K, 130000 kPa, x2 = 0.1	944.9 ± 0.8	–
273.15 K, 130000 kPa, x2 = 0.1989	939.9 ± 0.8	–
273.15 K, 130000 kPa, x2 = 0.3011	934.4 ± 0.8	–
273.15 K, 130000 kPa, x2 = 0.4002	929 ± 0.8	–
273.15 K, 130000 kPa, x2 = 0.5001	923.2 ± 0.8	–
273.15 K, 130000 kPa, x2 = 0.5997	916.9 ± 0.8	–
273.15 K, 130000 kPa, x2 = 0.6999	910.1 ± 0.9	–
273.15 K, 130000 kPa, x2 = 0.7999	902.7 ± 0.9	–
273.15 K, 130000 kPa, x2 = 0.9	894.6 ± 0.9	–
273.15 K, 140000 kPa, x2 = 0	952 ± 0.8	–
273.15 K, 140000 kPa, x2 = 0.1	948.2 ± 0.8	–
273.15 K, 140000 kPa, x2 = 0.1989	943.3 ± 0.8	–
273.15 K, 140000 kPa, x2 = 0.3011	937.6 ± 0.8	–
273.15 K, 140000 kPa, x2 = 0.4002	932.3 ± 0.8	–
273.15 K, 140000 kPa, x2 = 0.5001	926.7 ± 0.8	–
273.15 K, 140000 kPa, x2 = 0.5997	920.4 ± 0.8	–
273.15 K, 140000 kPa, x2 = 0.6999	913.4 ± 0.9	–
273.15 K, 140000 kPa, x2 = 0.7999	906 ± 0.9	–
273.15 K, 140000 kPa, x2 = 0.9	897.9 ± 0.9	–
293.15 K, 100 kPa, x2 = 0	875.1 ± 0.7	0.888 ± 0.019
293.15 K, 100 kPa, x2 = 0.1	869.3 ± 0.7	–
293.15 K, 100 kPa, x2 = 0.1001	–	0.885 ± 0.019
293.15 K, 100 kPa, x2 = 0.2261	–	0.909 ± 0.019
293.15 K, 100 kPa, x2 = 0.3	–	0.935 ± 0.02
293.15 K, 100 kPa, x2 = 0.3966	–	1.013 ± 0.021
293.15 K, 100 kPa, x2 = 0.5298	–	1.121 ± 0.024
293.15 K, 100 kPa, x2 = 0.6001	–	1.25 ± 0.026
293.15 K, 100 kPa, x2 = 0.7001	–	1.48 ± 0.031
293.15 K, 100 kPa, x2 = 0.7997	–	1.85 ± 0.038
293.15 K, 100 kPa, x2 = 0.9001	–	2.47 ± 0.051
